# Key:
# [1] = tested on: α-myosin heavy chain (α-MyHC) protein levels; assay: α-MyHC cytoblot assay in neonatal rat ventricular myocytes (NRVM); assay type: cell-based
# Experimental: FIG. 1 Concentration-dependent effect of Compound 1 on αMyHC protein levels in the cytoblot assay. NRVM are cultured for 3 days in serum-free medium in the presence of differing amounts of Compound 1. At the end of the culture period, NRVM are fixed and analyzed for α-MyHC protein levels using the BA-G5 monoclonal antibody specific for α-MyHC. Results are collected as RLU using a Packard Fusion Plate reader, and normalized to the signal from samples cultured in the absence of compound (control, set to 100%).
# Preparation and culture of neonatal rat ventricular myocytes (NRVM) was performed by removing hearts from 1-3 day old rat neonatal pups, along with the atria and lungs. The ventricles were cut into smaller pieces and digested 3 times with collagenase for 20-30 min at 37° C. The myocytes were then separated from other cell types using a Percoll gradient. The myocyte layer was collected, washed 2 times, and plated on tissue culture grade 10 cm Petri dishes for 1-2 hrs. The non-adherent cells (myocytes) were removed and plated in Costar clear view 96 well plates coated with 0.2% gelatin for at least 2 hrs. The gelatin solution was removed, and the myocytes were resuspended in DMEM high glucose media (Mediatech) containing 10% charcoal/dextran treated FBS (Hyclone) and 1% Penicillin-Streptomycin-Glutamine (PSG, Gibco). Ten thousand NRVM were plated per well in a 100 μl volume, and incubated overnight at 37° C. in 5% CO2 in air. The following day, the media was replaced with 100 μl of serum-free DMEM high glucose medium supplemented with PSG and 0.3% Nutridoma-SP (Roche).
# Compounds were reconstituted in DMSO at 30 mM, and aliquots were stored at −20° C. A 1:1000 dilution was prepared in serum-free DMEM medium supplemented with PSG and 0.3% Nutridoma, and sonicated for 5 min at room temperature. After sonication, additional 3 fold dilutions were prepared in the same medium. Diluted compound was then added to the NRVM cultures in a volume of 100 μl. […]
# For the α-MyHC cytoblot assay, NRVM cultures were analyzed for α-MyHC protein levels after 3 days of incubation. […] Excess antibody was removed with 3 PBS washes, and a chemiluminescent substrate was added (Pierce SuperSignal West Pico Chemiluminscent Substrate) for 5 min before quantitation on a Packard Fusion Plate Reader.
# As shown above in Table 1, Compound 1 increased α-MyHC protein levels as determined by an α-MyHC cytoblot assay. […] After 3 days of incubation with NRVM, α-MyHC protein levels were detected in the cytoblot assay and quantitated (FIG. 1). […] An increase in α-MyHC protein levels was first detected beginning at 30 nM, with a maximal response observed at 3 μM. […]
# α-MyHC protein levels = assay: Western blotting of α-MyHC protein in NRVM; assay type: cell-based, rat; settings: NRVM stimulated 3 days; Compound 1 10 nM to 10 μM
# Experimental: FIG. 2 Effect of Compound 1 on α-MyHC protein levels as detected by Western blotting. NRVM are stimulated with Compound 1 at different concentrations for 3 days. Protein extracts are prepared, proteins are separated by SDS-PAGE electrophoresis, transferred to PVDF membrane, and detected with an anti-α-MyHC monoclonal antibody.
# As an independent measure of changes in α-MyHC protein levels, NRVM stimulated with Compound 1 were analyzed for α-MyHC protein levels by Western blotting. Protein extracts prepared from NRVM stimulated with a range of concentrations of Compound 1 from 10 nM to 10 μM were separated by SDS-PAGE and transferred to PVDF membrane. Levels of α-MyHC protein were detected by Western blotting using the same anti-α-MyHC monoclonal antibody used in the cytoblot assay. […] This experiment verified that the changes in α-MyHC protein detected in the cytoblot assay were also evident by Western blotting.
# [2] = tested on: Hypertrophy of NRVM (secretion of atrial natriuretic factor); assay: Anti-hypertrophic activity in NRVM, ANF ELISA (ANF secretion); assay type: cell-based; settings: Rattus norvegicus, read-out: IC50 of the ANF ELISA (antihypertrophic activity)
# Experimental: Anti-hypertrophic Activity of Racemic Compound 1 and the Purified Enantiomers of Compound 1. Neonatal rat ventricular myocytes (NRVM) were isolated from 1 to 3 day-old Sprague-Dawley rats using enzymatic digestion and myocyte enrichment techniques. NRVM were cultured in serum-containing media for 18 hours. For the continuation of culture, serum-free media was used. Hypertrophy of NRVM was induced using pharmacological stimuli, including phenylephrine, endothelin-1, and […]. Hypertrophic responses were determined using methods including the following: measurement of total cellular protein; secretion of atrial natriuretic factor; determination of cell volume; determination of the expression of so-called fetal genes such as atrial natriuretic factor, beta-myosin heavy chain and alpha-skeletal actin. ANF secretion was the most sensitive assay for measuring hypertrophy, and the IC50 of the ANF ELISA was the measurement used to determine antihypertrophic activity.
compound,measurement,setting,value
CC(=O)C1=C(C)NC(SCC(=O)c2cccc([N+](=O)[O-])c2)=C(C#N)C1c1ccccc1Cl (racemic) [Compound 1],% increase of a-MyHC over baseline at 10 mM Cpd,[1]; 3 days incubation,206%
same,concentration at which an increase in α-MyHC protein levels was first detected,"[1]; 3 days, tested 3 nM to 30 μM",30 nM
same,concentration of maximal response (α-MyHC protein levels),"[1]; 3 days, tested 3 nM to 30 μM",3 µM
same,EC50,"[1]; Rattus norvegicus, Ventricular myocyte, 72 h, 3 days, average of six independent experiments, read-out: concentration that gave a half-maximal response (α-MyHC protein levels)",0.06 µM
same,α-MyHC protein levels by Western blotting,α-MyHC protein levels,increasing amounts of α-MyHC protein were observed with increasing amounts of Compound 1
same,IC50,[2],0.427 µM

# Reference: patent US7485653B2, “1,4-dihydropyridine compounds, pharmaceutical compositions, and methods for the treatment of cardiovascular disease” (Gilead Sciences, Inc., priority 2003, dated 2009)
